Test results: PubChem BioAssay AID1919006 (Molecular Pharmacology Branch, DTP, NCI, 2023)

System: 885512-296-R-J2-PDC complex spheroid growth, % test/control
Test: Anticancer human tumor 885512-296-R-J2-PDC patient-derived breast carcinoma cell line growth inhibition [AhR]
Settings: for IC50: curve of first compound; for viability, T/C: stronger effect = lower value
Method in brief: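 Spheroids combined tumor cells with HUVEC endothelial cells and human MSCs as stroma. AhR antagonists were paired with standard or investigational drugs, each dosed in half-log steps down from near clinical Cmax, or from 10 microM where Cmax was unknown.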

[1] = second compound 0.1 µM, first compound 0.0316 µM
[2] = second compound 0.1 µM, first compound 0.1 µM
[3] = second compound 0.316 µM, first compound 0.0316 µM
[4] = second compound 0.316 µM, first compound 0.1 µM
[5] = second compound 1 µM, first compound 0.0316 µM
[6] = second compound 1 µM, first compound 0.1 µM
[7] = second compound 3.16 µM, first compound 0.0316 µM
[8] = second compound 3.16 µM, first compound 0.1 µM
[9] = second compound 10 µM, first compound 0.0316 µM
[10] = second compound 10 µM, first compound 0.1 µM
[11] = second compound 0.1 µM, first compound 0.316 µM
[12] = second compound 0.1 µM, first compound 1 µM
[13] = second compound 0.1 µM, first compound 3.16 µM
[14] = second compound 0.1 µM, first compound 10 µM
[15] = second compound 0.316 µM, first compound 0.316 µM
[16] = second compound 0.316 µM, first compound 1 µM
[17] = second compound 0.316 µM, first compound 3.16 µM
[18] = second compound 0.316 µM, first compound 10 µM
[19] = second compound 1 µM, first compound 0.316 µM
[20] = second compound 1 µM, first compound 1 µM
[21] = second compound 1 µM, first compound 3.16 µM
[22] = second compound 1 µM, first compound 10 µM
[23] = second compound 3.16 µM, first compound 0.316 µM
[24] = second compound 3.16 µM, first compound 1 µM
[25] = second compound 3.16 µM, first compound 3.16 µM
[26] = second compound 3.16 µM, first compound 10 µM
[27] = second compound 10 µM, first compound 0.316 µM
[28] = second compound 10 µM, first compound 1 µM
[29] = second compound 10 µM, first compound 3.16 µM
[30] = second compound 10 µM, first compound 10 µM
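Note: spheroids exposed to compounds for seven days.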

Molecule `CC[C@@]1(O)C(=O)OCc2c1cc1n(c2=O)Cc2cc3c(CN(C)C)c(O)ccc3nc2-1` + Cc1cncc(-c2nc(NCCc3c[nH]c4ccccc34)c3ncn(C(C)C)c3n2)c1 has an IC50 (second compound 0.1 µM) of 0.00546 µM, an IC50 (second compound 0.316 µM) of 0.00572 µM and an IC50 (second compound 1 µM) of 0.00447 µM. The IC50 (second compound 3.16 µM) was 0.00215 µM, the IC50 (second compound 10 µM) was less than 0.000316 µM and the viability, T/C (second compound 0.1 µM, first compound 0.000316 µM) was 87.8%. For the same molecule, the viability, T/C (second compound 0.1 µM, first compound 0.001 µM) was 96.1%, the viability, T/C (second compound 0.1 µM, first compound 0.00316 µM) was 67.6% and the viability, T/C (second compound 0.1 µM, first compound 0.01 µM) was 29.2%. For the same molecule, the viability, T/C [1] was 9.48%, the viability, T/C [2] was 6.96% and the viability, T/C (second compound 0.316 µM, first compound 0.000316 µM) was 102%. For the same molecule, the viability, T/C (second compound 0.316 µM, first compound 0.001 µM) was 88.1%, the viability, T/C (second compound 0.316 µM, first compound 0.00316 µM) was 71.9% and the viability, T/C (second compound 0.316 µM, first compound 0.01 µM) was 30.6%. It also gave a viability, T/C [3] of 9.89%, a viability, T/C [4] of 4.62% and a viability, T/C (second compound 1 µM, first compound 0.000316 µM) of 90.4%. For the same molecule, the viability, T/C (second compound 1 µM, first compound 0.001 µM) was 82.2%, the viability, T/C (second compound 1 µM, first compound 0.00316 µM) was 62% and the viability, T/C (second compound 1 µM, first compound 0.01 µM) was 23.6%. For the same molecule, the viability, T/C [5] was 6.8%, the viability, T/C [6] was 6.23% and the viability, T/C (second compound 3.16 µM, first compound 0.000316 µM) was 62.9%. For the same molecule, the viability, T/C (second compound 3.16 µM, first compound 0.001 µM) was 60.1%, the viability, T/C (second compound 3.16 µM, first compound 0.00316 µM) was 44.5% and the viability, T/C (second compound 3.16 µM, first compound 0.01 µM) was 27.3%. The viability, T/C [7] was 12.9%, the viability, T/C [8] was 7.38% and the viability, T/C (second compound 10 µM, first compound 0.000316 µM) was 21.8%. The viability, T/C (second compound 10 µM, first compound 0.001 µM) was 21.9%, the viability, T/C (second compound 10 µM, first compound 0.00316 µM) was 20.9% and the viability, T/C (second compound 10 µM, first compound 0.01 µM) was 13.7%. For the same molecule, the viability, T/C [9] was 11.5% and the viability, T/C [10] was 4.72%.

`CCc1c2c(nc3ccc(O)cc13)-c1cc3c(c(=O)n1C2)COC(=O)[C@]3(O)CC` + Cc1cncc(-c2nc(NCCc3c[nH]c4ccccc34)c3ncn(C(C)C)c3n2)c1 was tested, and the IC50 (second compound 0.1 µM) was less than 0.000949 µM, the IC50 (second compound 0.316 µM) was less than 0.000949 µM and the IC50 (second compound 1 µM) was less than 0.000949 µM. It also gave an IC50 (second compound 3.16 µM) of less than 0.000949 µM, an IC50 (second compound 10 µM) of less than 0.000949 µM and a viability, T/C (second compound 0.1 µM, first compound 0.000949 µM) of 17.1%. It also gave a viability, T/C (second compound 0.1 µM, first compound 0.003 µM) of 6.62%, a viability, T/C (second compound 0.1 µM, first compound 0.00949 µM) of 6.47% and a viability, T/C (second compound 0.1 µM, first compound 0.03 µM) of 4.7%. The viability, T/C (second compound 0.1 µM, first compound 0.0949 µM) was 3.05%, the viability, T/C (second compound 0.1 µM, first compound 0.3 µM) was 1.25% and the viability, T/C (second compound 0.316 µM, first compound 0.000949 µM) was 13.4%. The viability, T/C (second compound 0.316 µM, first compound 0.003 µM) was 8.06%, the viability, T/C (second compound 0.316 µM, first compound 0.00949 µM) was 6.14% and the viability, T/C (second compound 0.316 µM, first compound 0.03 µM) was 3.21%. It also gave a viability, T/C (second compound 0.316 µM, first compound 0.0949 µM) of 2.78%, a viability, T/C (second compound 0.316 µM, first compound 0.3 µM) of 2.11% and a viability, T/C (second compound 1 µM, first compound 0.000949 µM) of 13.7%. It also gave a viability, T/C (second compound 1 µM, first compound 0.003 µM) of 10.2%, a viability, T/C (second compound 1 µM, first compound 0.00949 µM) of 6.69% and a viability, T/C (second compound 1 µM, first compound 0.03 µM) of 3.66%. The viability, T/C (second compound 1 µM, first compound 0.0949 µM) was 3.03%, the viability, T/C (second compound 1 µM, first compound 0.3 µM) was 1.71% and the viability, T/C (second compound 3.16 µM, first compound 0.000949 µM) was 14.3%. The viability, T/C (second compound 3.16 µM, first compound 0.003 µM) was 9.78%, the viability, T/C (second compound 3.16 µM, first compound 0.00949 µM) was 8.43% and the viability, T/C (second compound 3.16 µM, first compound 0.03 µM) was 4.39%. The viability, T/C (second compound 3.16 µM, first compound 0.0949 µM) was 2.48%, the viability, T/C (second compound 3.16 µM, first compound 0.3 µM) was 2.2% and the viability, T/C (second compound 10 µM, first compound 0.000949 µM) was 15.4%. It also gave a viability, T/C (second compound 10 µM, first compound 0.003 µM) of 10.6%, a viability, T/C (second compound 10 µM, first compound 0.00949 µM) of 5.11% and a viability, T/C (second compound 10 µM, first compound 0.03 µM) of 2.46%. It also gave a viability, T/C (second compound 10 µM, first compound 0.0949 µM) of 1.12% and a viability, T/C (second compound 10 µM, first compound 0.3 µM) of 0.78%.

`Nc1ccccc1NC(=O)c1ccc(CNC(=O)OCc2cccnc2)cc1` + Cc1cncc(-c2nc(NCCc3c[nH]c4ccccc34)c3ncn(C(C)C)c3n2)c1 gave an IC50 (second compound 0.1 µM) of 1.04 µM, an IC50 (second compound 0.316 µM) of 1.12 µM and an IC50 (second compound 1 µM) of 1.06 µM. For the same molecule, the IC50 (second compound 3.16 µM) was 0.373 µM, the IC50 (second compound 10 µM) was less than 0.0316 µM and the viability, T/C [1] was 85.6%. For the same molecule, the viability, T/C [2] was 102%, the viability, T/C [11] was 80.5% and the viability, T/C [12] was 47.3%. For the same molecule, the viability, T/C [13] was 31.2%, the viability, T/C [14] was 12.6% and the viability, T/C [3] was 86.9%. The viability, T/C [4] was 94.4%, the viability, T/C [15] was 72% and the viability, T/C [16] was 49.4%. The viability, T/C [17] was 32.7%, the viability, T/C [18] was 12.2% and the viability, T/C [5] was 82.3%. For the same molecule, the viability, T/C [6] was 78.7%, the viability, T/C [19] was 77.7% and the viability, T/C [20] was 48%. It also gave a viability, T/C [21] of 29.6%, a viability, T/C [22] of 15.2% and a viability, T/C [7] of 56.6%. It also gave a viability, T/C [8] of 61.3%, a viability, T/C [23] of 49.5% and a viability, T/C [24] of 40.4%. For the same molecule, the viability, T/C [25] was 25.1%, the viability, T/C [26] was 15.2% and the viability, T/C [9] was 21.3%. For the same molecule, the viability, T/C [10] was 19.4%, the viability, T/C [27] was 15.9% and the viability, T/C [28] was 11.6%. For the same molecule, the viability, T/C [29] was 9.94% and the viability, T/C [30] was 9.37%.

`Nc1ccn(C2OC(CO)C(O)C2(F)F)c(=O)n1` (stereo not given) + Cc1cncc(-c2nc(NCCc3c[nH]c4ccccc34)c3ncn(C(C)C)c3n2)c1 showed an IC50 (second compound 0.1 µM) of less than 0.0316 µM, an IC50 (second compound 0.316 µM) of less than 0.0316 µM and an IC50 (second compound 1 µM) of less than 0.0316 µM. The IC50 (second compound 3.16 µM) was less than 0.0316 µM, the IC50 (second compound 10 µM) was less than 0.0316 µM and the viability, T/C [1] was 3.33%. For the same molecule, the viability, T/C [2] was 4.05%, the viability, T/C [11] was 4.69% and the viability, T/C [12] was 4.03%. The viability, T/C [13] was 3.99%, the viability, T/C [14] was 4.46% and the viability, T/C [3] was 3.3%. It also gave a viability, T/C [4] of 3.9%, a viability, T/C [15] of 3.76% and a viability, T/C [16] of 4.54%. The viability, T/C [17] was 4.43%, the viability, T/C [18] was 3.99% and the viability, T/C [5] was 3.48%. For the same molecule, the viability, T/C [6] was 3.69%, the viability, T/C [19] was 3.49% and the viability, T/C [20] was 4.33%. It also gave a viability, T/C [21] of 3.22%, a viability, T/C [22] of 3.99% and a viability, T/C [7] of 5.82%. It also gave a viability, T/C [8] of 4.2%, a viability, T/C [23] of 4.2% and a viability, T/C [24] of 4.17%. The viability, T/C [25] was 4.29%, the viability, T/C [26] was 3.8% and the viability, T/C [9] was 8.48%. The viability, T/C [10] was 8.12%, the viability, T/C [27] was 3.15% and the viability, T/C [28] was 2.99%. The viability, T/C [29] was 2.64% and the viability, T/C [30] was 2.75%.

Work on `O=C(c1cc(Cc2n[nH]c(=O)c3ccccc23)ccc1F)N1CCN(C(=O)C2CC2)CC1` + Cc1cncc(-c2nc(NCCc3c[nH]c4ccccc34)c3ncn(C(C)C)c3n2)c1 yielded an IC50 (second compound 0.1 µM) of 6.62 µM, an IC50 (second compound 0.316 µM) of 7.17 µM and an IC50 (second compound 1 µM) of 6.44 µM. The IC50 (second compound 3.16 µM) was 3.07 µM, the IC50 (second compound 10 µM) was less than 0.0316 µM and the viability, T/C [1] was 109%. The viability, T/C [2] was 102%, the viability, T/C [11] was 107% and the viability, T/C [12] was 112%. The viability, T/C [13] was 86.4%, the viability, T/C [14] was 29.7% and the viability, T/C [3] was 107%. For the same molecule, the viability, T/C [4] was 98.4%, the viability, T/C [15] was 97.2% and the viability, T/C [16] was 109%. The viability, T/C [17] was 95%, the viability, T/C [18] was 31.3% and the viability, T/C [5] was 85.3%. It also gave a viability, T/C [6] of 82.7%, a viability, T/C [19] of 99.1% and a viability, T/C [20] of 87.2%. The viability, T/C [21] was 81.9%, the viability, T/C [22] was 30.3% and the viability, T/C [7] was 54.4%. It also gave a viability, T/C [8] of 60.1%, a viability, T/C [23] of 62.5% and a viability, T/C [24] of 60.1%. For the same molecule, the viability, T/C [25] was 49.8%, the viability, T/C [26] was 24.6% and the viability, T/C [9] was 15.5%. The viability, T/C [10] was 19.7%, the viability, T/C [27] was 17.1% and the viability, T/C [28] was 17.1%. For the same molecule, the viability, T/C [29] was 17.5% and the viability, T/C [30] was 15.2%.
